Source: patent publication US20250162973A1, “METHODS OF SYNTHESIS AND USES OF AGRIMOL COMPOUNDS” (Versitech Limited, priority 2022, published 2025)

Columns and labels:
TALDO1 = target: T1, TALDO1 (Homo sapiens, UniProt P37837); assay: Targeted metabolomics of PPP intermediates and intracellular NADPH; assay type: cell-based; settings: after treatment of AGB
T1 construct: endogenous in cells
T1 sequence (P37837 1-337): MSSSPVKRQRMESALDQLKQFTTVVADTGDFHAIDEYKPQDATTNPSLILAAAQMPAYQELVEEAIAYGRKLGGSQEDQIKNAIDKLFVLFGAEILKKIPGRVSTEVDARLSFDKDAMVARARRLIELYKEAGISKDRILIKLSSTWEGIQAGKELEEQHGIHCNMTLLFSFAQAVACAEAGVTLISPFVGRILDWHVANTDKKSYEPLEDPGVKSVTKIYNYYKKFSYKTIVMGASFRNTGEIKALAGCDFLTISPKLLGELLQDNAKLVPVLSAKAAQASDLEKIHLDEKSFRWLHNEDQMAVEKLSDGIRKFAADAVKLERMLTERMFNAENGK
Description: TALDO1 is a key enzyme of the nonoxidative PPP providing ribose-5-phosphate for nucleic acid synthesis and NADPH (the reduced form of Nicotinamide adenine dinucleotide phosphate) for lipid biosynthesis. Targeted metabolomics analysis was performed for measuring of the intermediate metabolites involved in the PPP pathway. […] PPP activation has been widely found in different types of cancer because of the uncontrolled proliferation of cancer cells. […] Moreover, enhanced production of NADPH is crucial to increase the intracellular redox power of cancer cells to escape from oxidative stress.

[1] = test system: patient-derived organoids (PDOs) from a lung cancer patient's metastatic tumor; assay: Patient-derived organoid viability (CellTiter Glo); assay type: cell-based, human; parameters: viability of PDO: dose or concentration left out as unconfirmed; settings: 72 h
Description: FIG. 1A is a bar graph showing the IC50 values of AGB against indicated cell lines. Cells were treated with AGB at various concentrations for 48 h and processed for MTT assay. The IC50 values were half maximal inhibitory concentration that determined by the fitting curve using the equation from GraphPad Prism 8. FIG. 1B is a bar graph showing the inhibition of colony formation on NCI-H460 cells by AGB. Cells were treated with indicated concentrations of AGB for 8 h. Medium with AGB was then aspirated and cells were re-seeded into a new 12-well cell culture plate. After 14 days, cells were fixed by ethanol followed by staining using crystal violet. Colony numbers were counted and normalized to vehicle control group. Colonies with more than 50 cells were considered. **, p<0.01; ***, p<0.001. […] The numbers of formed tumorsphere were calculated and normalized to the control group of primary passage. […] FIG. 1E is a graph showing the cell viability of CSCs determined by MTT assay. The absorbance of each well was normalized to control wells and data were shown as percentage of cell viabilities. […]
To better simulate the physiological structure and function of in situ tissue, the effect of AGB on the growth of patient-derived organoids (PDOs) isolated from a lung cancer patient's metastatic tumor was evaluated.

[2] = test system: ER stress in NCI-H460 cells; assay: ER stress (ER tracker staining, Western Blot of markers); assay type: cell-based, human
Description: The disruption of Golgi structure leads to impaired glycosylation processes, resulting in misfolded proteins which would accumulate to induce ER stress. The relationship between AGB and ER stress in cancer cells was examined. The morphology of ER was disrupted and the content was lessened using ER tracker staining (images not shown). In order to verify that NCI-H460 cells developed ER stress response when treated with AGB, the expression of two ER stress markers, Glucose-regulated protein (GRP) 78 (GRP78) and C/-EBP homologous protein (CHOP), was examined. GAPDH was used as a loading control. […] Generally, there are three sensors to initiate ER stress responses, including IRE1, PERK and ATF6. Upon the accumulation of unfolded proteins, BiP preferentially binds to the unfolded proteins, which results in the release of PERK, IRE1, and ATF6. Once released from BiP, PERK becomes activated and dimerized. Activated PERK phosphorylates eIF2α to suppress the overall […] of mRNAs.

[3] = Maximum tolerated dose (MTD) determination, general toxicity and body weight; assay type: in vivo
Description: The MTD test in this study was done in collaboration with Tianjin Institute of Pharmaceutical Research (TIPR). […] A total of 80 mice were randomly assigned into four groups (10 male and 10 female mice in each group) in this study. Four groups included 16.0 mg/kg of AGB group, 12.8 mg/kg of AGB group, vehicle control group (10% DMSO+0.8% Tween-80 in normal saline), and the blank control group (normal saline).
Then, the body weights of surviving animals were measured on the 1st, 3rd, 7th and 14th days, respectively. At the end of experiment, the hematology, blood biochemistry, anatomical examination, and histopathology examination were performed in both vehicle control group and the MTD group (12.8 mg/kg). The data were presented as the mean±standard deviation.

[4] = 16.0 mg/kg, about 1 hour after administration

With `CCCC(=O)c1c(O)c(Cc2c(O)c(Cc3c(O)c(C)c(OC)c(C(=O)CCC)c3O)c(O)c(C(=O)[C@@H](C)CC)c2O)c(O)c(C)c1OC` [AGB, Agrimol B] as the compound, how does the PPP intermediate metabolites (TALDO1) read?
Its PPP intermediate metabolites is “significantly decreased”.

And the “intracellular content of NADPH” value (TALDO1)?
Its value is “significant decrease”.

What about the “viability of PDO” value ([1]; AGB, concentration dependent) of the same compound?
Its value is “Significant inhibition of viability”.

And the maximal viability loss ([1]; PDO)?
The maximal viability loss was “over 99%”.

And the “phosphorylation status of eIF2α” value ([2]; AGB-treated NCI-H460)?
The value was “eIF2α was phosphorylated”.

What about the “morphology of ER” value ([2]; ER tracker staining) of the same compound?
The value was “disrupted”.

And the “expression of ER stress markers GRP78 and CHOP” value ([2]; Western Blot, time-dependent)?
Its value is “significantly increased”.

What about the “body weight of female mice” value ([3]; 12.8 mg/kg, d 0, mean ± SD) of the same compound?
Its value is 20.52 ± 1.00 g.

And the “body weight of male mice” value ([3]; 12.8 mg/kg, d 0, mean ± SD)?
Its value is 21.16 ± 1.07 g.

And the “body weight of female mice” value ([3]; 12.8 mg/kg, d 1, mean ± SD)?
Its value is 20.60 ± 1.18 g.

And the “body weight of male mice” value ([3]; 12.8 mg/kg, d 1, mean ± SD)?
The value was 21.27 ± 1.46 g.

What about the “body weight of female mice” value ([3]; 12.8 mg/kg, d 3, mean ± SD) of the same compound?
Its value is 21.14 ± 0.99 g.

What about the “body weight of male mice” value ([3]; 12.8 mg/kg, d 3, mean ± SD) of the same compound?
The value was 21.89 ± 1.51 g.

And the “body weight of female mice” value ([3]; 12.8 mg/kg, d 7, mean ± SD)?
The value was 23.68 ± 1.83 g.

What about the “body weight of male mice” value ([3]; 12.8 mg/kg, d 7, mean ± SD) of the same compound?
Its value is 25.64 ± 1.54 g.

What about the “body weight of female mice” value ([3]; 12.8 mg/kg, d 14, mean ± SD) of the same compound?
The value was 26.38 ± 1.63 g.

What about the “body weight of male mice” value ([3]; 12.8 mg/kg, d 14, mean ± SD) of the same compound?
The value was 31.60 ± 2.37 g.

And the “symptoms of toxic reactions” value ([3]; 12.8 mg/kg, day of dosing and recovery period)?
The value was “No symptoms of toxic reactions were observed”.

And the “animals with reduced activities” value ([3]; 16.0 mg/kg, about 30 minutes after administration)?
Its value is 13/20.

What about the mice appearing prone [3, 4] of the same compound?
Its mice appearing prone is 3/20.

What about the mice with ptosis [3, 4] of the same compound?
Its mice with ptosis is 1/20.

What about the “body weight of female mice” value ([3]; 16.0 mg/kg, d 0, mean ± SD) of the same compound?
Its value is 20.57 ± 0.90 g.

What about the “body weight of male mice” value ([3]; 16.0 mg/kg, d 0, mean ± SD) of the same compound?
Its value is 21.24 ± 0.58 g.

What about the “body weight of female mice” value ([3]; 16.0 mg/kg, d 1, mean ± SD) of the same compound?
Its value is 18.76 ± 0.89 g.

And the “body weight of male mice” value ([3]; 16.0 mg/kg, d 1, mean ± SD)?
The value was 19.64 ± 1.15 g.

What about the “body weight of female mice” value ([3]; 16.0 mg/kg, d 3, mean ± SD) of the same compound?
The value was 19.61 ± 1.50 g.

And the “body weight of male mice” value ([3]; 16.0 mg/kg, d 3, mean ± SD)?
Its value is 20.04 ± 1.42 g.

And the “body weight of female mice” value ([3]; 16.0 mg/kg, d 7, mean ± SD)?
The value was 22.76 ± 1.26 g.

What about the “body weight of male mice” value ([3]; 16.0 mg/kg, d 7, mean ± SD) of the same compound?
Its value is 24.25 ± 1.48 g.

And the “body weight of female mice” value ([3]; 16.0 mg/kg, d 14, mean ± SD)?
The value was 25.61 ± 0.87 g.

What about the “body weight of male mice” value ([3]; 16.0 mg/kg, d 14, mean ± SD) of the same compound?
Its value is 31.48 ± 1.73 g.

And the MTD at 14 day ([3]; both sexes, mouse, in vivo, iv, single i.v. injection, ICR mice)?
Its MTD at 14 day is 12.8 mg/kg.
